Assay results published in patent publication US20240368104A1, “Novel Dialkoxynaphtho[2,3-C]Furan-1(3H)-One Derivatives and Pharmaceutical Composition For Preventing or Treating Respiratory Disease or SARS-COV-2 Infection Disease, Comprising Same” (priority 2021, published 2024).
pIC50: −log10 of the molar value. Counter-ions that a name gives are not always drawn. Like-named read-outs stand apart in the source and are kept apart here.

What was measured:
SARS-COV-2 = test: microbe, parasite or virus in culture; assay type: cell-based; set-up: SI (Selectivity Index, CC50/IC50): unit not given here; details: for SI (Selectivity Index, CC50/IC50): SARS-COV-2, values >50 assumed to be 50; for pIC50: read-out: SARS-COV-2 inhibition (IC50)
in vitro = details: African green monkey
[1] = Severe acute respiratory syndrome coronavirus 2, Vero cells, 24 hours infection
[2] = Severe acute respiratory syndrome coronavirus 2, Vero, 24 h

Structure (SMILES) | SI (Selectivity Index, CC50/IC50) (SARS-COV-2) | pIC50 (SARS-COV-2; [1]) | CC50 (in vitro) [µM] | pIC50 (SARS-COV-2; [2])
COc1cc2cc3c(c(-c4cnc(N5CCC(C)CC5)nc4)c2cc1OC)C(=O)OC3 [Example 107, 6,7-dimethoxy-9-(2-(4-methylpiperidin-1-yl)pyrimidin-5-yl)naphtho[2,3-c]furan-(3H)-one hydrochloride] | 35.49 | 5.85 | > 50 | 
COc1cc2cc3c(c(-c4cnc(N5CC(C)(C)OC(C)(C)C5)nc4)c2cc1OC)C(=O)OC3 [Example 114, 6,7-dimethoxy-9-(2-(2,2,6,6-tetramethylmorpholino)pyrimidin-5-yl)naphtho[2,3-c]furan-1(3H)-one] | 1.0 | < 4.30 | > 50 | 
COc1ccc2c(-c3c4c(cc5cc(OC)c(OC)cc35)COC4=O)cc(C)nc2c1 [Example 141, 6,7-dimethoxy-9-(7-methoxy-2-methylquinolin-4-yl)naphtho[2,3-c]furan-1(3H)-one] | 2.07 | 4.62 | > 50 | 
COc1cc2cc3c(c(-c4cnc(N5CCC[C@@H]5CO)nc4)c2cc1OC)C(=O)OC3.Cl [Example 82, (R)-9-(2-(2-(hydroxymethyl)pyrrolidin-1-yl)pyrimidin-5-yl)-6,7-dimethoxynaphtho[2,3-c]furan-1(3H)-one hydrochloride] | 3.93 |  | > 50 | 4.90
CCN(CC)CCNc1c2c(cc3cc(OC)c(OC)cc13)COC2=O [Example 6, 9-((2-(diethylamino)ethyl)amino)-6,7-dimethoxynaphtho[2,3-c]furan-1(3H)-one] | 1.00 | < 4.30 | > 50 | 
COc1cc2cc3c(c(N4CCNCC4)c2cc1OC)C(=O)OC3 [Example 128, 6,7-dimethoxy-9-(piperazin-1-yl)naphtho[2,3-c]furan-1(3H)-one] | 1.78 |  | > 50 | 4.55
CCN(Cc1cccs1)c1ccc(-c2c3c(cc4cc(OC)c(OC)cc24)COC3=O)cn1 [Example 199, 9-(6-(ethyl(thiophen-2-ylmethyl)amino)pyridin-3-yl)-6,7-dimethoxynaphtho[2,3-c]furan-1(3H)-one] | 25.20 | 5.70 | > 50 | 
CCN(c1ccc(-c2c3c(cc4cc(OC)c(OC)cc24)COC3=O)cn1)c1ncn(CC)n1 [Example 207, 9-(6-(ethyl(1-ethyl-1H-1,2,4-triazol-3-yl)amino)pyridin-3-yl)-6,7-dimethoxynaphtho[2,3-c]furan-1(3H)-one] | 7.57 | 5.18 | > 50 | 
COc1cc2cc3c(c(-c4ccc(N5CCSCC5)nc4)c2cc1OC)C(=O)OC3 [Example 10, 6,7-dimethoxy-9-(6-thiomorpholinopyridin-3-yl)naphtho[2,3-c]furan-1(3H)-one] | 91.58 | 6.26 | > 50 | 
COc1cc2cc3c(c(-c4cnc(N(C)C5CC5)nc4)c2cc1OC)C(=O)OC3 [Example 70, 9-(2-(cyclopropyl(methyl)amino)pyrimidin-5-yl)-6,7-dimethoxynaphtho[2,3-c]furan-1(3H)-one] | 92.84 | 6.27 | > 50 | 
COc1cc2cc3c(c(-c4ccc(N(C)C)nc4)c2cc1OC)C(=O)OC3 [Example 163, 9-(6-(dimethylamino)pyridin-3-yl)-6,7-dimethoxynaphtho[2,3-c]furan-1(3H)-one] | 885.42 | 7.22 | > 50 | 
COc1cc2cc3c(c(-c4ccc(N(C)c5ccc(N(C)C(C)=O)cc5)nc4)c2cc1OC)C(=O)OC3.Cl [Example 236, N-(4-((5-(6,7-dimethoxy-3-oxo-1,3-dihydronaphtho[2,3-c]furan-4-yl)pyridin-2-yl)(methyl)amino)phenyl)-N-methylacetamide] | 30.25 |  | > 50 | 5.78
